The results in this text go back to patent US6737431B2 (Bristol-Myers Squibb Company, priority 2002, dated 2004).

One test concerns the target T1, melatonin ML1a receptor (Homo sapiens, UniProt P48039).
T1 construct: expressed in transfected cells; membrane homogenates
Briefly: Melatonergic receptor binding, 2-[125I]-iodomelatonin, ML1a. The note with it: Table I; NIH-3T3 membranes, 0.1 nM 2-[125I]-iodomelatonin, 37° C. 1 hour. Here is the method: (§1) Melatonergic Receptor Binding Activity
(§2) (a) TME=50 mM Tris buffer containing 12.5 mM MgCl2, and 2 mM EDTA, pH 7.4 at 37° C., with concentrated HCl.
(§3) (b) Wash buffer: 20 mM Tris base containing 2 mM MgCl2, pH 7.4 at room temperature.
(§4) (c) 10^−4 M melatonin (10^−5 M final concentration).
(d) 2-[^125I]-iodomelatonin ML1a, 0.1 nM final concentration.
(§5) 2. Membrane Homogenates: The melatonin ML1a and ML1b receptors cDNA were individually subcloned into pcDNA3 and introduced into NIH-3T3 cells using Lipofectamine. Transformed NIH-3T3 cells resistant to geneticin (G-418) were isolated, and single colonies expressing high levels of 2[^125I]-iodomelatonin binding were isolated. Cells are maintained in DMEM supplemented with 10% calf serum and G-418 (0.5 g/liter). Cells are grown to confluency in T-175 flasks, scraped using Hank's balanced salt solution, and frozen at −80° C. For preparing membrane homogenates, pellets are thawed on ice, and re-suspended in TME buffer in the presence of 10 μg/ml aprotinin and leupeptin, and 100 μM phenylmethylsulfonylfluoride. The cells were then homogenized using a dounce homogenizer, and centrifuged. The resulting pellet was re-suspended with dounce homogenizer in TME (supplemented with the above protease inhibitors) and frozen. On the day of assay, a small aliquot was thawed on ice and re-suspended in the ice cold TME (1:50-1:100 v/v) and held on ice until assayed.
(§6) 3. Incubation: 37° C. for 1 hour. Reaction is terminated by filtration. Filters were washed 3 times.
(§7) 4. References: Reppert, S. M. et al., Neuron, 13, p. 1177-1185 (1994); and Reppert, S. M. et al., Proc. Natl. Acad. Sci. USA, 92, p. 8734-8738 (1995).
(§8) The compounds of the present invention have affinity for receptors of the endogenous pineal hormone, melatonin, as determined in receptor binding assays described above in Tables I to III for the ML1a and ML1b (human) receptors. Melatonin is involved in the regulation of a variety of biological rhythms and exerts its biological effects via interaction with specific receptors. There is evidence that administration of melatonin agonists are of clinical utility in the treatment of various conditions regulated by melatonin activity. Such conditions include depression, jet-lag, work-shift syndrome, sleep disorders, glaucoma, some disorders associated with reproduction, cancer benign prostatic hyperplasia, immune disorders, and neuroendocrine disorders.

The target in another test is T2, melatonin ML1b receptor (Homo sapiens, UniProt P49286).
T2 construct: expressed in transfected cells; membrane homogenates
T2 sequence (P49286 1-362): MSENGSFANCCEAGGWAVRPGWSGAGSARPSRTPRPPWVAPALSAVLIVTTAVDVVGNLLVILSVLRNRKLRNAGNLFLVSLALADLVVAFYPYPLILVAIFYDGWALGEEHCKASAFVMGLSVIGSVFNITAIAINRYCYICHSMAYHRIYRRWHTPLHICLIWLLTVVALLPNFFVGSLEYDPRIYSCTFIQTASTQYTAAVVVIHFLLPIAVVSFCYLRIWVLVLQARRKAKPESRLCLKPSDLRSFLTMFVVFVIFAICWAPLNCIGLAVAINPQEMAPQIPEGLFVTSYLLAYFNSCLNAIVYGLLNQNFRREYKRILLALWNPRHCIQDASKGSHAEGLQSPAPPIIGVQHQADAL
Briefly: Melatonergic receptor binding, 2-[125I]-iodomelatonin, ML1b. To be noted: NIH-3T3 membranes, 0.2 nM 2-[125I]-iodomelatonin, 37° C. 1 hour. Here is the method:
as §1, §2, §3, §4
(e) 2-[^125I]-iodomelatonin ML1b, 0.2 nM final concentration.
as §5, §6, §7, §8

The structures appear in SMILES notation.

For orientation: IC50 means the concentration at which inhibition is half-maximal. A low value points to greater potency.

T1 sequence (P48039 whole entry): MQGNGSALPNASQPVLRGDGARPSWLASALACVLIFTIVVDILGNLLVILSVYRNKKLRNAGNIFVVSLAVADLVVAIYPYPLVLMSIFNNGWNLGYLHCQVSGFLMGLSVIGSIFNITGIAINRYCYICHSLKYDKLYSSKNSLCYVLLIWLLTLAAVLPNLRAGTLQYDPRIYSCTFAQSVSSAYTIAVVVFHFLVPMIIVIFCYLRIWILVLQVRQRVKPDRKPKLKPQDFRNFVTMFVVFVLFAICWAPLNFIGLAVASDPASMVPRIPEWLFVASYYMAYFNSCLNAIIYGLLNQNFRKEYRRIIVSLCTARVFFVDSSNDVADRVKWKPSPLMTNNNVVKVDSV

Regarding `CC(=O)NCCCc1cccc2nc(C)oc12` [Example 1, N-[3-(2-Methyl-7-benzoxazolyl)propyl]acetamide], the IC50 on melatonin ML1a receptor and at melatonin ML1b receptor (Table I) was 10 to 250 nM in each case.

As for `CCC(=O)NCCCc1cccc2nc(C)oc12` [Example 2, N-[3-(2-Methyl-7-benzoxazolyl)propyl]propanamide], the IC50 on melatonin ML1a receptor and on melatonin ML1b receptor (Table I) was under 10 nM throughout.

`CCCC(=O)NCCCc1cccc2nc(C)oc12` [Example 3, N-[3-(2-Methyl-7-benzoxazolyl)propyl]butanamide]: the IC50 at melatonin ML1a receptor and on melatonin ML1b receptor (Table I) was under 10 nM in each case.

With `Cc1nc2cccc(CCCNC(=O)C3CC3)c2o1` [Example 4, N-[3-(2-Methyl-7-benzoxazolyl)propyl]cyclopropanecarboxamide], the 50% inhibitory concentration (IC50) at melatonin ML1a receptor and at melatonin ML1b receptor (Table I) was under 10 nM in each case.

As for `Cc1nc2cccc(CCCNC(=O)C(C)C)c2o1` [Example 5, N-[3-(2-Methyl-7-benzoxazolyl)propyl]-2-methylpropanamide], the IC50 on melatonin ML1a receptor and on melatonin ML1b receptor (Table I) was under 10 nM throughout.

`CCNC(=O)NCCCc1cccc2nc(C)oc12` [Example 6, (Ethylamino)-N-[3-(2-methylbenzoxazol-7-yl)propyl]carboxamide]: the IC50 on melatonin ML1a receptor and on melatonin ML1b receptor (Table I) was 10 to 250 nM each time.

With `CCc1nc2cccc(CCCNC(C)=O)c2o1` [Example 7, N-[3-(2-Ethylbenzoxazol-7-yl)propyl]acetamide], the half-maximal inhibitory concentration (IC50) on melatonin ML1a receptor was 10 to 250 nM; on melatonin ML1b receptor (Table I), under 10 nM.

Regarding `CCC(=O)NCCCc1cccc2nc(CC)oc12` [Example 8, N-[3-(2-Ethylbenzoxazol-7-yl)propyl]propanamide], the IC50 on melatonin ML1a receptor and at melatonin ML1b receptor (Table I) was under 10 nM in each case.

For `CCCC(=O)NCCCc1cccc2nc(CC)oc12` [Example 9, N-[3-(2-Ethylbenzoxazol-7-yl)propyl]butanamide], the IC50 is 10 to 250 nM at melatonin ML1a receptor and under 10 nM at melatonin ML1b receptor (Table I).

As to `CCc1nc2cccc(CCCNC(=O)C(C)C)c2o1` [Example 10, N-[3-(2-Ethylbenzoxazol-7-yl)propyl]-2-methylpropanamide], the half-inhibitory concentration (IC50) on melatonin ML1a receptor and at melatonin ML1b receptor (Table I) was 10 to 250 nM in each case.

With `CCc1nc2cccc(CCCNC(=O)C3CC3)c2o1` [Example 11, Cyclopropyl-N-[3-(2-ethylbenzoxazol-7-yl)propyl]carboxamide], the figures for the IC50 on melatonin ML1a receptor and at melatonin ML1b receptor (Table I) were under 10 nM and 10 to 250 nM, respectively.

Consider `CCNC(=O)NCCCc1cccc2nc(CC)oc12` [Example 12, (Ethylamino)-N-[3-(2-ethylbenzoxazol-7-yl)propyl]carboxamide], for which the 50% inhibitory concentration (IC50) on melatonin ML1a receptor and on melatonin ML1b receptor (Table I) was 10 to 250 nM in each case.

In the case of `CCCc1nc2cccc(CCCNC(C)=O)c2o1` [Example 13, N-[3-(2-Propylbenzoxazol-7-yl)propyl]acetamide], the concentration for half-maximal inhibition (IC50) at melatonin ML1a receptor is over 250 nM; on melatonin ML1b receptor (Table I), 10 to 250 nM.

Turning to `CCCc1nc2cccc(CCCNC(=O)CC)c2o1` [Example 14, N-[3-(2-Propylbenzoxazol-7-yl)propyl]propanamide], the 50% inhibitory concentration (IC50) at melatonin ML1a receptor and at melatonin ML1b receptor (Table I) was 10 to 250 nM in each case.

As for `CCCC(=O)NCCCc1cccc2nc(CCC)oc12` [Example 15, N-[3-(2-Propylbenzoxazol-7-yl)propyl]butanamide], the half-inhibitory concentration (IC50) on melatonin ML1a receptor is over 250 nM; on melatonin ML1b receptor (Table I), 10 to 250 nM.

Consider `CCCc1nc2cccc(CCCNC(=O)C(C)C)c2o1` [Example 16, 2-Methyl-N-[3-(2-propylbenzoxazol-7-yl)propyl]propanamide], for which the 50% inhibitory concentration (IC50) at melatonin ML1a receptor and on melatonin ML1b receptor (Table I) was 10 to 250 nM throughout.

Turning to `CCCc1nc2cccc(CCCNC(=O)C3CC3)c2o1` [Example 17, Cyclopropyl-N-[3-(2-propylbenzoxazol-7-yl)propyl]carboxamide], the IC50 on melatonin ML1a receptor and at melatonin ML1b receptor (Table I) was 10 to 250 nM throughout.

Consider `CCCc1nc2cccc(CCCNC(=O)NCC)c2o1` [Example 18, (Ethylamino)-N-[3-(2-propylbenzoxazol-7-yl)propyl]carboxamide], for which the IC50 is over 250 nM on melatonin ML1a receptor and 10 to 250 nM on melatonin ML1b receptor (Table I).

As for `CC(=O)NCCCc1cccc2nc(-c3ccccc3)oc12` [Example 19, N-[3-(2-Phenylbenzoxazol-7-yl)propyl]acetamide], the IC50 on melatonin ML1a receptor and on melatonin ML1b receptor (Table I) was 10 to 250 nM each time.

As to `CCC(=O)NCCCc1cccc2nc(-c3ccccc3)oc12` [Example 20, N-[3-(2-Phenylbenzoxazol-7-yl)propyl]propanamide], the IC50 on melatonin ML1a receptor and at melatonin ML1b receptor (Table I) was 10 to 250 nM in each case.

`CCCC(=O)NCCCc1cccc2nc(-c3ccccc3)oc12` [Example 21, N-[3-(2-Phenylbenzoxazol-7-yl)propyl]butanamide]: the concentration for half-maximal inhibition (IC50) at melatonin ML1a receptor and on melatonin ML1b receptor (Table I) was 10 to 250 nM in each case.

Consider `CC(C)C(=O)NCCCc1cccc2nc(-c3ccccc3)oc12` [Example 22, 2-Methyl-N-[3-(2-phenylbenzoxazol-7-yl)propyl]propanamide], for which the IC50 at melatonin ML1a receptor and at melatonin ML1b receptor (Table I) was 10 to 250 nM in each case.

On to `O=C(NCCCc1cccc2nc(-c3ccccc3)oc12)C1CC1` [Example 23, Cyclopropyl-N-[3-(2-phenylbenzoxazol-7-yl)propyl]carboxamide], for which the IC50 on melatonin ML1a receptor and on melatonin ML1b receptor (Table I) was 10 to 250 nM each time.

Regarding `CCNC(=O)NCCCc1cccc2nc(-c3ccccc3)oc12` [Example 24, (Ethylamino)-N-[3-(2-phenylbenzoxazol-7-yl)propyl]carboxamide], the half-inhibitory concentration (IC50) at melatonin ML1a receptor was over 250 nM; at melatonin ML1b receptor (Table I), 10 to 250 nM.

`CC(=O)NCCCc1cccc2nc(CCCCc3ccccc3)oc12` [Example 25, N-{3-[2-(4-Phenylbutyl)benzoxazol-7-yl]propyl}acetamide]: the concentration for half-maximal inhibition (IC50) at melatonin ML1a receptor was under 10 nM; at melatonin ML1b receptor (Table I), 10 to 250 nM.

In the case of `CCC(=O)NCCCc1cccc2nc(CCCCc3ccccc3)oc12` [Example 26, N-{3-[2-(4-Phenylbutyl)benzoxazol-7-yl]propyl}propanamide], the IC50 on melatonin ML1a receptor is under 10 nM; on melatonin ML1b receptor (Table I), 10 to 250 nM.

For the molecule `CCCC(=O)NCCCc1cccc2nc(CCCCc3ccccc3)oc12` [Example 27, N-{3-[2-(4-Phenylbutyl)benzoxazol-7-yl]propyl}butanamide], the IC50 at melatonin ML1a receptor is under 10 nM; on melatonin ML1b receptor (Table I), 10 to 250 nM.

Regarding `CC(C)C(=O)NCCCc1cccc2nc(CCCCc3ccccc3)oc12` [Example 28, 2-Methyl-N-{3-[2-(4-phenylbutyl)benzoxazol-7-yl]propyl}propanamide], the concentration for half-maximal inhibition (IC50) was under 10 nM at melatonin ML1a receptor and 10 to 250 nM at melatonin ML1b receptor (Table I).

With `O=C(NCCCc1cccc2nc(CCCCc3ccccc3)oc12)C1CC1` [Example 29, Cyclopropyl-N-{3-[2-(4-phenylbutyl)benzoxazol-7-yl]propyl}carboxamide], the IC50 was under 10 nM at melatonin ML1a receptor and 10 to 250 nM on melatonin ML1b receptor (Table I).

Consider `CCNC(=O)NCCCc1cccc2nc(CCCCc3ccccc3)oc12` [Example 30, (Ethylamino)-N-{3-[2-(4-phenylbutyl)benzoxazol-7-yl]propyl}carboxamide], for which the half-maximal inhibitory concentration (IC50) on melatonin ML1a receptor was under 10 nM; at melatonin ML1b receptor (Table I), 10 to 250 nM.

Consider `CC(=O)NCCCc1cccc2ncoc12` [Example 31, N-(3-Benzoxazol-7-ylpropyl)acetamide], for which the IC50 on melatonin ML1a receptor and at melatonin ML1b receptor (Table I) was 10 to 250 nM each time.

Take `CCC(=O)NCCCc1cccc2ncoc12` [Example 32, N-(3-Benzoxazol-7-ylpropyl)propanamide]: the half-maximal inhibitory concentration (IC50) on melatonin ML1a receptor is 10 to 250 nM; on melatonin ML1b receptor (Table I), under 10 nM.

For `CC(C)C(=O)NCCCc1cccc2ncoc12` [Example 33, N-(3-Benzoxazol-7-ylpropyl)-2-methylpropanamide], the IC50 at melatonin ML1a receptor is 10 to 250 nM; on melatonin ML1b receptor (Table I), under 10 nM.

With `CCc1nc2ccc(-c3ccco3)c(CCCNC(=O)c3ccccc3)c2o1` [Example 74, N-[3-(2-Ethyl-6-(2-furyl)benzoxazol-7-yl)propyl]benzamide], the IC50 on melatonin ML1b receptor (Table II) was over 250 nM.
